How the values were obtained:
[1] = target: C-C chemokine receptor type 5 (Homo sapiens, UniProt P51681); format: cell membranes, HEK293, Membrane; conditions: hek293; further: in other assays of this panel Not Active means under 50% inhibition at 10 µM
[2] = DRUGMATRIX: Phosphodiesterase PDE3 enzyme inhibition (substrate: [3H]cAMP + cAMP); format: tissue-based, Homo sapiens; conditions: platelet; Not Active = under 50% inhibition at 10 µM
Carbonic anhydrase 2 = Carbonic anhydrase 2 (Homo sapiens, UniProt P00918); experiment: DRUGMATRIX: Carbonic Anhydrase II enzyme inhibition (substrate: 4-Nitrophenyl acetate (4-NPA)); format: tissue-based, Erythrocyte; conditions: erythrocyte; Not Active = under 50% inhibition at 10 µM
[3] = target: T1, Alpha-1D adrenergic receptor (Homo sapiens, UniProt P25100); format: cell membranes, HEK293, Membrane; conditions: hek293; further: in other assays of this panel Not Active means under 50% inhibition at 10 µM
T1 sequence (P25100 whole entry): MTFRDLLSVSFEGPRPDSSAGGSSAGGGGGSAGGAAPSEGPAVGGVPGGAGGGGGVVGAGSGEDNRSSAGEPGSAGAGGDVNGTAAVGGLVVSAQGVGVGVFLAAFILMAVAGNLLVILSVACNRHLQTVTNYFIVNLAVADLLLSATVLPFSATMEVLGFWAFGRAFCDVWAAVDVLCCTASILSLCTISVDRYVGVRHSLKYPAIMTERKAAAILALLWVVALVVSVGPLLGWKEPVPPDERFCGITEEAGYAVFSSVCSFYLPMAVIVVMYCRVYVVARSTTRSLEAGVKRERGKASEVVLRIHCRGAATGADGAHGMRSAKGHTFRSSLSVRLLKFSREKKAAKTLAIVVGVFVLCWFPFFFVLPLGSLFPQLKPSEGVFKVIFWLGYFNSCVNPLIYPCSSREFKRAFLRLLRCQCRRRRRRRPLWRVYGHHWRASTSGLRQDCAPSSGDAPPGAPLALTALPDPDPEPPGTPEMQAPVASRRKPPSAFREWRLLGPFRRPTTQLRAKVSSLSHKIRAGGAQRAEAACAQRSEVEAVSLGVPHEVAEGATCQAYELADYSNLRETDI

Interstitial collagenase = target: T2, Interstitial collagenase (Homo sapiens, UniProt P03956); experiment: biochemical; format: tissue-based, Rheumatoid synovial fibroblasts;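 further: MMP-1 enzyme inhibition assay using a peptide substrate; in other assays of this panel Not Active means under 50% inhibition at 10 µM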
T2 sequence (P03956 whole entry): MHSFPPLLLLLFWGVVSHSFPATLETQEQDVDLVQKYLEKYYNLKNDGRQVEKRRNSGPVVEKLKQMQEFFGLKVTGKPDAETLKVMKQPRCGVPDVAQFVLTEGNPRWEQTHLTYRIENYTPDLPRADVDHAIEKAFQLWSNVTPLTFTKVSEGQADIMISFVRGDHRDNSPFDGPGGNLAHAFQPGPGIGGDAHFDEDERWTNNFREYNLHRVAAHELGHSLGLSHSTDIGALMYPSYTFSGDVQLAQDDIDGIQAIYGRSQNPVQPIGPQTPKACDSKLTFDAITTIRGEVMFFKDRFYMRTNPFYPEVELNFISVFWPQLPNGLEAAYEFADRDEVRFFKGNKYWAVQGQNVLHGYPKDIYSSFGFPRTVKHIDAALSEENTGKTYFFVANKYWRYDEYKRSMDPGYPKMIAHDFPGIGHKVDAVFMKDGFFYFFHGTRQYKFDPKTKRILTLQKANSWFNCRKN

Caspase-1 = target: T3, Caspase-1 (Homo sapiens, UniProt P29466); set-up: species or system Escherichia coli;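 further: Caspase-1 enzyme inhibition assay with a peptide substrate; in other assays of this panel Not Active means under 50% inhibition at 10 µM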
T3 sequence (P29466 whole entry): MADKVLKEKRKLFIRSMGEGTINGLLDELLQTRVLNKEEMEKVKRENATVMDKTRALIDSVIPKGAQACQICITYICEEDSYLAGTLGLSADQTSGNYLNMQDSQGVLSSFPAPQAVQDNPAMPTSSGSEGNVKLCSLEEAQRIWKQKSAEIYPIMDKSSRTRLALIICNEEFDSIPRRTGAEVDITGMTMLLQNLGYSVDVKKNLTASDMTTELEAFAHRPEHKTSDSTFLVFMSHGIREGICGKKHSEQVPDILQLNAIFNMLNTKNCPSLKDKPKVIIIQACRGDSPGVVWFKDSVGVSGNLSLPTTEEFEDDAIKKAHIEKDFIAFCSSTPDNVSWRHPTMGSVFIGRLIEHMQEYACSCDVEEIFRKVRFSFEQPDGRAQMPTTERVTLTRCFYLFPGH

[4] = target: T4, Alpha-1B adrenergic receptor (Rattus norvegicus, UniProt P15823); experiment: DRUGMATRIX: Alpha-1B adrenergic receptor radioligand binding (ligand: prazosin); format: cell membranes, Wistar, Liver, Membrane; conditions: Not Active = under 50% inhibition at 10 µM
T4 sequence (P15823 whole entry): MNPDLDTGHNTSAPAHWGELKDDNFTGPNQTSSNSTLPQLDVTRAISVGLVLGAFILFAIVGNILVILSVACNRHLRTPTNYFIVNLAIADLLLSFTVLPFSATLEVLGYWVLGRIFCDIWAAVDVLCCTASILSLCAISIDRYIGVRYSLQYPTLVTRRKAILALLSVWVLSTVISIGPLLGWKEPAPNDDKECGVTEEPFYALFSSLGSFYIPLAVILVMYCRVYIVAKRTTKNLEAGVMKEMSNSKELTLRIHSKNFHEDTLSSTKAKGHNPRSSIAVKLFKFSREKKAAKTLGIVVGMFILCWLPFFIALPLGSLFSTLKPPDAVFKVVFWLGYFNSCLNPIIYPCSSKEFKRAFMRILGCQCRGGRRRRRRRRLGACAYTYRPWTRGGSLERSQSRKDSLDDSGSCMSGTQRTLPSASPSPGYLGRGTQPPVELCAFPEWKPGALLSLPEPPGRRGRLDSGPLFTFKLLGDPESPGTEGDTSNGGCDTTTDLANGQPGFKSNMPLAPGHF

Leukotriene C4 synthase = target: T5, Leukotriene C4 synthase (Cavia porcellus, UniProt A6XA80); format: tissue-based, Lung
T5 sequence (A6XA80 whole entry): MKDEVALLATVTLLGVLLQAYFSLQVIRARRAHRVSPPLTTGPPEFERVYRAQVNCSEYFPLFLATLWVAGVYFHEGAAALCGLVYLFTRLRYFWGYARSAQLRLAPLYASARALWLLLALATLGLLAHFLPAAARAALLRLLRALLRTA

C-C chemokine receptor type 5, sequence (P51681 whole entry): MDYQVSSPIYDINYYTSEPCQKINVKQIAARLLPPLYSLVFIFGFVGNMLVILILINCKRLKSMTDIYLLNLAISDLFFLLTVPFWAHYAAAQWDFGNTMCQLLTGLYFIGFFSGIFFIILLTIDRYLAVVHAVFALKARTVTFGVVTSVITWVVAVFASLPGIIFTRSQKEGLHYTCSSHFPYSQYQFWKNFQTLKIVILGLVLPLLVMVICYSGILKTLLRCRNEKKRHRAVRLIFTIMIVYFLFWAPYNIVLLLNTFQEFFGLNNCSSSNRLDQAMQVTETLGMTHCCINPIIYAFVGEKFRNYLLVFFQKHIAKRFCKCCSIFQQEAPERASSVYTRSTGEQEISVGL

N[C@H](CSC(=S)NCc1ccccc1)C(=O)O
Not Active: IC50 [1] | IC50 [2] | Ki [2] | IC50 (Carbonic anhydrase 2) | IC50 [3] | IC50 (Interstitial collagenase) | IC50 (Caspase-1) | IC50 [4] | IC50 (Leukotriene C4 synthase)

Cc1cc(C)nc(NS(=O)(=O)c2ccc(N)cc2)n1 [SULFAMETHAZINE]
Not Active: IC50 [1] | IC50 [2] | Ki [2] | IC50 (Carbonic anhydrase 2) | IC50 [3] | IC50 (Interstitial collagenase) | IC50 (Caspase-1) | IC50 [4] | IC50 (Leukotriene C4 synthase)

Cc1cccc(Nc2ccncc2S(=O)(=O)NC(=O)NC(C)C)c1 [TORSEMIDE]
Not Active: IC50 [1] | IC50 [2] | Ki [2] | IC50 (Carbonic anhydrase 2) | IC50 [3] | IC50 (Interstitial collagenase) | IC50 (Caspase-1) | IC50 [4] | IC50 (Leukotriene C4 synthase)

O=C1CCC(N2C(=O)c3ccccc3C2=O)C(=O)N1 (stereo unspecified) [THALIDOMIDE]
Not Active: IC50 [1] | IC50 [2] | Ki [2] | IC50 (Carbonic anhydrase 2) | IC50 [3] | IC50 (Interstitial collagenase) | IC50 (Caspase-1) | IC50 [4] | IC50 (Leukotriene C4 synthase)

CC(C)CC(N(C)C)C1(c2ccc(Cl)cc2)CCC1 (stereo unspecified) [SIBUTRAMINE]
Not Active: IC50 [1] | IC50 [2] | Ki [2] | IC50 (Carbonic anhydrase 2) | IC50 [3] | IC50 (Interstitial collagenase) | IC50 (Caspase-1) | IC50 [4] | IC50 (Leukotriene C4 synthase)

[H]/N=C(/N)N[C@H]1[C@H](O)[C@@H](O)[C@H](O[C@@H]2O[C@@H](C)[C@](O)(C=O)[C@H]2O[C@@H]2O[C@@H](CO)[C@H](O)[C@@H](O)[C@@H]2NC)[C@@H](N/C(N)=N\[H])[C@@H]1O [STREPTOMYCIN]
Not Active: IC50 [1] | IC50 [2] | Ki [2] | IC50 (Carbonic anhydrase 2) | IC50 [3] | IC50 (Interstitial collagenase) | IC50 (Caspase-1) | IC50 [4] | IC50 (Leukotriene C4 synthase)

CC(C)C[C@H](NC(=O)[C@@H](O)[C@H](N)Cc1ccccc1)C(=O)O [UBENIMEX]
Not Active: IC50 [1] | IC50 [2] | Ki [2] | IC50 (Carbonic anhydrase 2) | IC50 [3] | IC50 (Interstitial collagenase) | IC50 (Caspase-1) | IC50 [4] | IC50 (Leukotriene C4 synthase)

CC(C)NCC(O)COc1cccc2ccccc12 (stereo unspecified) [PROPRANOLOL]
Not Active: IC50 [1] | IC50 (Carbonic anhydrase 2) | IC50 [3] | IC50 (Interstitial collagenase) | IC50 (Caspase-1) | IC50 (Leukotriene C4 synthase)

Cc1onc(-c2ccccc2)c1-c1ccc(S(N)(=O)=O)cc1 [VALDECOXIB]
Not Active: IC50 [1] | IC50 [2] | Ki [2] | IC50 [3] | IC50 (Interstitial collagenase) | IC50 (Caspase-1) | IC50 [4] | IC50 (Leukotriene C4 synthase)

CC[C@]1(O)C[C@@H]2CN(CCc3c([nH]c4ccccc34)[C@@](C(=O)OC)(c3cc4c(cc3OC)N(C)[C@H]3[C@@](O)(C(=O)OC)[C@H](OC(C)=O)[C@]5(CC)C=CCN6CC[C@]43[C@@H]65)C2)C1 [VINBLASTINE]
Not Active: IC50 [1] | IC50 [2] | Ki [2] | IC50 (Carbonic anhydrase 2) | IC50 [3] | IC50 (Interstitial collagenase) | IC50 (Caspase-1) | IC50 [4] | IC50 (Leukotriene C4 synthase)
